In patent US9801872B2, “Pyridinyl and fused pyridinyl triazolone derivatives” (Takeda Pharmaceutical Company Limited, priority 2013, dated 2017):

What follows are molecules tested against human BTK (Homo sapiens (Human), UniProt Q06187) (assay: BTK inhibition: BTK-mediated phosphorylation of FAM-labeled substrate 5-FAM-[…]-NH2 (Caliper LC-3000)). Settings: residues 382 to 659 of human BTK; 60 minutes at room temperature; pIC50 = -log(IC50), IC50 molar.
Type: biochemical
Text: The activity of compounds as BTK inhibitors may be determined by a variety of methods, including in vitro and in vivo methods.
This construct engineers an in-frame translational fusion with the Glutathione-S-Transferase (GST) protein for use in affinity purification. The fusion protein derived from this construct contains a protease recognition sequence to liberate the BTK from the GST affinity tag. High-titer baculoviral stocks, generated using the Bac-to-Bac® system (Invitrogen), are used to express the recombinant protein in Spodoptera frugiperda Sf9 cells in 10 L Wave bags. Recombinant proteins are isolated from cellular extracts by passage over Glutathione Sepharose 4B (GE Healthcare) and the BTK moiety is released from the GST affinity tag by treatment with PreScission protease. The BTK recombinant protein is further purified by size exclusion chromatography (HiLoad 16/60 Superdex 200, GE Healthcare) in a buffer containing 20 mM Hepes (pH 7.4), 50 mM NaCl, 10 mM MgCl2, 0.25 mM TCEP and 0.1 mM EDTA. The purity of the fractions is assessed by SDS PAGE and the peak protein fractions are pooled and concentrated using Amicon Ultra-15 Centrifugal Filter Devices (Millipore).
The inhibitory properties of compounds relative to BTK is determined using a black 384-well-plate format in a buffer which contains 50 mM Hepes, 10 mM NaCl, 10 mM MgCl2, 0.2 mM EDTA, 0.01% Brij35®, 1 mM DTT, and 0.1 mg/mL BSA at pH 7.3. The test compound is prepared in DMSO using 2-fold serial dilutions for 11 data points, which are added to the buffer so that each dilution contains 3% DMSO. […] The reaction mixtures are incubated at room temperature for 60 minutes and then quenched by adding 25 μL of 50 mM EDTA. To quantify the fluorescent-labeled substrate and product following reaction, the test plate is loaded on a Caliper LC-3000, which measures percent of conversion by microfluidic-based separation.
The compounds were tested in accordance with the assay described on page 42 of the specification.

Sequence of human BTK (Q06187 382-659): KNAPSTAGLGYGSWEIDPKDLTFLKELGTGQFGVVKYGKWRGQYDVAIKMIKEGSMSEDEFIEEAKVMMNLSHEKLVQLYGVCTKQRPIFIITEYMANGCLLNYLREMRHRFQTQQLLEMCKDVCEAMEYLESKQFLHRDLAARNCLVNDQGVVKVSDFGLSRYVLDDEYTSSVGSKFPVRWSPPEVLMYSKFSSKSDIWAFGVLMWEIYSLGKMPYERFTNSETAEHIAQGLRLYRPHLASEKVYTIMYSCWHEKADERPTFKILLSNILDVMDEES

Row | SMILES | BTK Inhibition (pIC50)
1 | C=CC(=O)N1CCC[C@H]1CNc1nc(-c2n[nH]c(=O)[nH]2)cc2ccccc12 [Example 6, (S)-3-(1-(((1-acryloylpyrrolidin-2-yl)methyl)amino)isoquinolin-3-yl)-1H-1,2,4-triazol-5(4H)-one] | 8.0
2 | C/C=C/C(=O)N1CC[C@@H](Oc2nc(-c3n[nH]c(=O)[nH]3)cc3ccccc23)C1 [Example 3, (R,E)-3-(1-((1-(but-2-enoyl)pyrrolidin-3-yl)oxy)isoquinolin-3-yl)-1H-1,2,4-triazol-5(4H)-one] | 6.5
3 | C=CC(=O)N1CC[C@H](N(C)c2nc(-c3n[nH]c(=O)[nH]3)cc3ccccc23)C1 [Example 11, (S)-3-(1-((1-acryloylpyrrolidin-3-yl)(methyl)amino)isoquinolin-3-yl)-1H-1,2,4-triazol-5(4H)-one] | 8.5
4 | C=CC(=O)N1CC[C@@H](Oc2nc(-c3n[nH]c(=O)[nH]3)cc3ccccc23)C1 [Example 2, (R)-3-(1-((1-acryloylpyrrolidin-3-yl)oxy)isoquinolin-3-yl)-1H-1,2,4-triazol-5(4H)-one] | 7.1

Other lines, results leading:

Row | BTK Inhibition (pIC50) | SMILES
5 | >8.6 | C=CC(=O)N1CC[C@H](Nc2nc(-c3n[nH]c(=O)[nH]3)cc3cccc(Cl)c23)C1 [Example 28, (S)-3-(1-((1-acryloylpyrrolidin-3-yl)amino)-8-chloroisoquinolin-3-yl)-1H-1,2,4-triazol-5(4H)-one]
6 | >8.9 | C=CC(=O)N1CC[C@H](Nc2nc(-c3n[nH]c(=O)[nH]3)cc3cccc(F)c23)C1 [Example 23, (S)-3-(1-((1-acryloylpyrrolidin-3-yl)amino)-8-fluoroisoquinolin-3-yl)-1H-1,2,4-triazol-5(4H)-one]
7 | 7.6 | C/C=C/C(=O)N1CC[C@H](Nc2nc(-c3n[nH]c(=O)[nH]3)cc3ccccc23)C1 [Example 15, (S,E)-3-(1-((1-(but-2-enoyl)pyrrolidin-3-yl)amino)isoquinolin-3-yl)-1H-1,2,4-triazol-5(4H)-one]
